The values that follow come from patent US10570179B2, “Substituted urea depsipeptide analogs as activators of the CLPP endopeptidase” (priority 2016, dated 2020).

Values after ≈ are worked out from the molar mass of the structure shown. Numbered stars: 1 amine (or outer) side, 2 acyl side, 3 side chain; on linkers, the order of the positions; unused ones are H or OH. Bridge positions count the residues as written; N and C are the ends. Square brackets hold non-standard residues; d marks the D form. Peptide text beside a SMILES is read from it. * marks the point of attachment. Phe(3-CF3) = N[C@@H](Cc1cccc(C(F)(F)F)c1)C(=O)O; Piperazine(2S-CO,4-Me) = CN1CCN[C@H](C(=O)O)C1; NH(1,3-benzodioxol-5-yl) = c1cc2c(cc1N*)OCO2; Phe(3-OMe) = COc1cccc(C[C@H](N)C(=O)O)c1; Phe(3-Me) = Cc1cccc(C[C@H](N)C(=O)O)c1; NH(4-Cl-2-F-phenyl) = Fc1cc(Cl)ccc1N*; Pro(4R-Me) = C[C@H]1CN[C@H](C(=O)O)C1; NH(4-Et-phenyl) = CCc1ccc(N*)cc1; CO = O=C([*:1])[*:2]

A short description of data set [1]: Cytotoxicity assay (CellTiter-Glo cell viability). It counts as cell-based. Conditions: African green monkey. How it is done:
Cytotoxicity was determined by determining the effect of compounds on cell viability. Vero (kidney epithelial cells; ATCC CCL-81) monolayers were trypsinized and 5000 cells/well were seeded (10-15% confluency) into white-wall, flat bottom 96 well microwell plates (Corning) using enriched Dulbecco's Modified Eagle's Medium (Hyclone: DMEM/High Glucose) containing 10% Fetal Bovine Serum (ATCC-30-2020). Plates were incubated overnight at 37° C. in the presence of 5% CO2. Drug-free media was then replaced with media containing serial dilutions of test compound or DMSO carrier. After an additional 72 hours of incubation, viability was indirectly measured using the CellTiter-Glo® Luminescent Cell Viability (Promega) assay. Assay plates were read at peak emission wavelength of 560 nm using a EnVision® Multilabel Plate Reader (Perkin Elmer) or PHERAstar FS Multilabel reader (BMG, Cary, N.C.). The concentration of test compounds that inhibited growth by 50% (IC50 value) was computed using nonlinear regression based fitting of inhibition curves using log [inhibitor] vs. response-variable slope (four parameters)—symmetrical equation, in GraphPad Prism version 6 [GraphPad Software, La Jolla, Calif. USA, www.graphpad.com]. For each experiment, compounds were tested in duplicate. IC50 values presented are the range of two biologically independent experiments.

The subject of another data set is B. subtilis. The data set is described as follows: Minimal inhibitory concentration, microbroth dilution. Conditions: Bacillus subtilis; MIC; read-out: Minimal Inhibitory Concentrations (μM) B. subtilis. The format is cell-based. Put shortly:
(§1)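 Compound was diluted twofold in the appropriate broth. Bacterial suspension (approx. 10^5 cfu/mL) was then added in equal volume, giving a maximum test concentration of 200 μM. After aerobic overnight incubation at 37 °C, wells were inspected visually for growth.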

Another data set relates to S. pneumoniae. Described as above. The format is cell-based. The following applies: Streptococcus pneumoniae; MIC; read-out: Minimal Inhibitory Concentrations (μM) S. pneumoniae. A digest of the protocol: as §1
A short description of the next data set: Plasma pharmacokinetics. It counts as in vivo, male BALB/c mice. Conditions: male, BALB/c, mouse, in vivo, iv.

The molecule `Cc1cccc(C[C@H](NC(=O)Nc2ccc(Cl)cc2F)C(=O)N[C@H]2COC(=O)[C@@H]3C[C@@H](C)CN3C(=O)[C@H](C)NC(=O)[C@@H]3CCCCN3C(=O)[C@@H]3CCCN3C2=O)c1` [Compound 8, (S)-2-(3-(4-CHLORO-2-FLUOROPHENYL)UREIDO)-N-((2R,6S,8AS,14AS,20S,23AS)-2,6-DIMETHYL-5,8,14,19,23-PENTAOXOOCTADECAHYDRO-1H,5H,14H,19H-PYRIDO[2,1-I]DIPYRROLO[2,1-C:2′,1′-L][1]OXA[4,7,10,13]TETRAAZACYCLOHEXADECIN-20-YL)-3-(M-TOLYL)PROPANAMIDE] gave a half-maximal inhibitory concentration (IC50) at 72 h in data set [1] greater than 10 µM. Also, the MIC with B. subtilis stood at 0.156 µM (≈ 0.126 µg/mL); with S. pneumoniae, 0.078 µM (≈ 0.0632 µg/mL).
The molecule `Cc1cccc(C[C@H](NC(=O)Nc2ccc(Cl)cc2F)C(=O)N[C@H]2COC(=O)[C@@H]3C[C@@H](C)CN3C(=O)[C@H](C)NC(=O)[C@@H]3CCCCN3C(=O)[C@@H]3C[C@@H](O)CN3C2=O)c1` [Compound 10] came in with a half-maximal inhibitory concentration (IC50) at 72 h in data set [1] greater than 50 µM. Further, the figures for the MIC in the data set with B. subtilis and in the data set on S. pneumoniae were 0.313 µM (≈ 0.259 µg/mL) and 0.078 µM (≈ 0.0645 µg/mL), respectively.
Turning to `CCc1ccc(NC(=O)N[C@@H](Cc2cccc(C)c2)C(=O)N[C@H]2COC(=O)[C@@H]3C[C@@H](C)CN3C(=O)[C@H](C)NC(=O)[C@@H]3CN(C)CCN3C(=O)[C@@H]3CCCN3C2=O)cc1` [Compound 16, (S)-2-(3-(4-ETHYLPHENYL)UREIDO)-3-(M-TOLYL)-N-((6AS,12S,15AS,17R,21S,23AS)-2,17,21-TRIMETHYL-6,11,15,20,23-PENTAOXOOCTADECAHYDRO-2H,6H,11H,15H-PYRAZINO[2,1-I]DIPYRROLO[2,1-C:2′,1′-L][1]OXA[4,7,10,13]TETRAAZACYCLOHEXADECIN-12-YL)PROPANAMIDE] ({NH(4-Et-phenyl)-CO}-[Phe(3-Me)]SP[Piperazine(2S-CO,4-Me)]A[Pro(4R-Me)]; ester 2-C), the MIC in the data set with S. pneumoniae was 0.078 µM (≈ 0.0625 µg/mL). For the same molecule, in “Plasma pharmacokinetics”, the total exposure AUC(0-inf) was determined as 3770 ng·h/mL, the exposure AUC(0-t) stood at 3760 ng·h/mL, the “C^0” value amounted to 18634.35 ng/mL and the clearance was found to be 44.3 mL/min/kg. In the data set “Plasma pharmacokinetics”, this molecule had a half-life of 15 min. Also, the Vd in the data set “Plasma pharmacokinetics” (10 mg/kg, Route i.v., read-out: Vss) was determined as 0.57 L/kg.
In the case of `Cc1cccc(C[C@H](NC(=O)Nc2ccc3c(c2)OCO3)C(=O)N[C@H]2COC(=O)[C@@H]3C[C@@H](C)CN3C(=O)[C@H](C)NC(=O)[C@@H]3CN(C)CCN3C(=O)[C@@H]3CCCN3C2=O)c1` [Compound 17, (S)-2-(3-(BENZO[D][1,3]DIOXOL-5-YL)UREIDO)-3-(M-TOLYL)-N-((6AS,12S,15AS,17R,21S,23AS)-2,17,21-TRIMETHYL-6,11,15,20,23-PENTAOXOOCTADECAHYDRO-2H,6H,11H,15H-PYRAZINO[2,1-I]DIPYRROLO[2,1-C:2′,1′-L][1]OXA[4,7,10,13]TETRAAZACYCLOHEXADECIN-12-YL)PROPANAMIDE] ({NH(1,3-benzodioxol-5-yl)-CO}-[Phe(3-Me)]SP[Piperazine(2S-CO,4-Me)]A[Pro(4R-Me)]; ester 2-C), the MIC in the data set with S. pneumoniae is 0.313 µM (≈ 0.256 µg/mL).
Consider `C[C@@H]1C[C@H]2C(=O)OC[C@H](NC(=O)[C@H](Cc3cccc(C(F)(F)F)c3)NC(=O)Nc3ccc(Cl)cc3F)C(=O)N3CCC[C@H]3C(=O)N3CCN(C)C[C@H]3C(=O)N[C@@H](C)C(=O)N2C1` [Compound 18, (S)-2-(3-(4-CHLORO-2-FLUOROPHENYL)UREIDO)-3-(3-(TRIFLUOROMETHYL)PHENYL)-N-((6AS,12S,15AS,17R,21S,23AS)-2,17,21-TRIMETHYL-6,11,15,20,23-PENTAOXOOCTADECAHYDRO-2H,6H,11H,15H-PYRAZINO[2,1-I]DIPYRROLO[2,1-C:2′,1′-L][1]OXA[4,7,10,13]TETRAAZACYCLOHEXADECIN-12-YL)PROPANAMIDE] ({NH(4-Cl-2-F-phenyl)-CO}-[Phe(3-CF3)]SP[Piperazine(2S-CO,4-Me)]A[Pro(4R-Me)]; ester 2-C), for which, in the data set on S. pneumoniae, the MIC was less than 0.02 µM.
The same measure, in the same setting: to `COc1cccc(C[C@H](NC(=O)Nc2ccc(Cl)cc2F)C(=O)N[C@H]2COC(=O)[C@@H]3C[C@@H](C)CN3C(=O)[C@H](C)NC(=O)[C@@H]3CN(C)CCN3C(=O)[C@@H]3CCCN3C2=O)c1` [Compound 19, (S)-2-(3-(4-CHLORO-2-FLUOROPHENYL)UREIDO)-3-(3-METHOXYPHENYL)-N-((6AS,12S,15AS,17R,21S,23AS)-2,17,21-TRIMETHYL-6,11,15,20,23-PENTAOXOOCTADECAHYDRO-2H,6H,11H,15H-PYRAZINO[2,1-I]DIPYRROLO[2,1-C:2′,1′-L][1]OXA[4,7,10,13]TETRAAZACYCLOHEXADECIN-12-YL)PROPANAMIDE] ({NH(4-Cl-2-F-phenyl)-CO}-[Phe(3-OMe)]SP[Piperazine(2S-CO,4-Me)]A[Pro(4R-Me)]; ester 2-C) belongs 2.5 µM (≈ 2.1 µg/mL).
